# Values joined by “and” are separate entries in the source; they are usually repeats but may differ in a detail not shown here. Equal entries are not always repeated. Structures can show the parent of a compound that is named as a salt. Where two headings read alike, the source gives them in different places.
# Experiments:
# [1] = target: T1, helicase domain of the Pol θ protein (Homo sapiens, UniProt O75417); assay: Biochemical Activity Assay (ADP Glo Assay) of Pol θ inhibitor, ATPase activity
# T1 construct: The helicase domain of the Pol θ protein was purified from insect protein expression system; made in house; host or cells: insect protein expression system
# T1 sequence (O75417 102-554 limits assumed): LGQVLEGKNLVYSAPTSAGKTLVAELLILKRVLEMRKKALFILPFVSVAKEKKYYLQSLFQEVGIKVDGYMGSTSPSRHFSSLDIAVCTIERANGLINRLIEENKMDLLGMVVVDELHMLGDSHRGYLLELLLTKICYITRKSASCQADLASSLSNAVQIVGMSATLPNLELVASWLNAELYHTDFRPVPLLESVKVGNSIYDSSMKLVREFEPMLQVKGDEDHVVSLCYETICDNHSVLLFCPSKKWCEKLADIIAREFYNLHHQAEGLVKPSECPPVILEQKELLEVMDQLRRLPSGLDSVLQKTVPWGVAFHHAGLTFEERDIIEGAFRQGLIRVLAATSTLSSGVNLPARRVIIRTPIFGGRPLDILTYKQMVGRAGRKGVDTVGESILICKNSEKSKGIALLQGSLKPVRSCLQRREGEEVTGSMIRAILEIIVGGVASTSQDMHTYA
# [2] = read-out: Cell viability assay IC50
# cells = conditions: Homo sapiens, DLD-1, 240 h
# in vitro = conditions: mouse, microsomes, pH 7.4
# Solubility assay = conditions: phosphate buffer, pH 7.4, aqueous buffer, kinetic from dmso stock
# [3] = Mouse PK assay after oral administration
# [4] = read-out: Cell viability assay IC50 (nM)
# [5] = ADP-Glo assay, ATPase activity of Pol θ helicase domain, ssDNA substrate, read-out: Biochemical assay IC50
# [6] = read-out: Cell viability assay IC50 (nM), CTG assay, CellTiter Glo, read on Day 10, cell line not given
# [7] = male, ICR, mouse, plasma, po, 30 mg/kg
# [8] = mice, oral, administration dose 30 mg/kg, plasma
# [9] = read-out: Biochemical assay IC50
# [10] = ADP-Glo, ssDNA substrate, 60 min at room temperature, read-out: Biochemical assay IC50
# [11] = Biochemical assay IC50 (nM), ADP-Glo assay, ATPase activity of Pol θ helicase domain, ssDNA substrate
# [12] = Biochemical assay IC50 (nM), ADP-Glo, ssDNA substrate, 60 min at room temperature
# [13] = CTG on Day 10, cell line not given (method: DLD1 and DLD1^-/- cells)
# [14] = read-out: Cell viability assay IC50 (nM), CTG on Day 10, cell line not given (method: DLD1 and DLD1^-/- cells)
SMILES,"IC50 [1, 5] [nM]","IC50 [1, 10] [nM]",IC50 [2] [nM],IC50 (cells; [4]) [nM],IC50 (cells; [6]) [nM],other results
"COc1cnc(Cl)cc1-c1cc(C)ncc1C(=O)Nc1nn2cc(-c3ccccn3)nc2s1 [Example 97, 2'-chloro-5'-methoxy-6-methyl-N-(6-(pyridin-2-vyl)imidazol[2,1-b][1,3,4]thiadiazol-2-yl)-[4,4'-bipyridine]-3-carboxamide]",–,–,1210,> 1000,–,IC50 ([1]; Biochemical assay IC50 (nM)): < 50 nM and 26.4 nM
COc1cnc(Cl)c(F)c1-c1cc(C)ncc1C(=O)Nc1nc2ccccc2s1 [Examples 39],–,–,108,100 to 500,–,"IC50 [1, 9]: < 50 nM and 8.57 nM"
"COc1cnc(Cl)c(F)c1-c1cc(C)ncc1C(=O)Nc1nc2c(s1)CN(C(=O)C1CCOC1)CC2 (centres unmarked) [Example 54, 2'-chloro-3'-fluoro-5'-methoxy-6-methyl-N-(5-(tetrahydrofuran-3-carbonyl)-4,5,6,7-tetrahydrothiazol[5,4-c]pyridin-2-yl)-[4,4'-bipyridine]-3-carboxamide]",–,–,794,500 to 1000,–,IC50 ([1]; Biochemical assay IC50 (nM)): < 50 nM and 40.6 nM
COc1cnc(Cl)cc1-c1cc(C)ncc1C(=O)Nc1nc2ccc([C@H]3CC[C@@H](O)CC3)nc2s1 [Example 28],12.1,< 50,178,100 to 500,–,–
"COc1cnc(Cl)cc1-c1cc2cnc(C)n2cc1C(=O)Nc1nc2ccc(C3=CCC(O)CC3)nc2s1 (centres unmarked) [Example 55, 7-(2-chloro-5-methoxypyridin-4-yl)-N-(5-(4-hydroxycyclohex-1-en-1-yl)thiazol[5,4-b]pyridin-2-yl)-3-methylimidazol[1,5-a]pyridin-6-carboxamide]",–,–,112,100 to 500,–,IC50 ([1]; Biochemical assay IC50 (nM)): < 50 nM and 28.7 nM
[2H]C([2H])([2H])c1cc(-c2cc(Cl)ncc2OC)c(C(=O)Nc2nc3ccc(N4CCC(O)CC4)nc3s2)cn1 [Example 109],–,–,147,< 100,–,"IC50 [1, 11]: 6.71 nM; IC50 [1, 12]: < 50 nM"
"COc1cnc(Cl)cc1-c1cc(C)ncc1C(=O)Nc1nc2ncc([C@H]3CC[C@H](O)CC3)cc2s1 [Example 27, 2'-chloro-N-(6-((1r, 4r)-4-hydroxycyclohexyl)thiazolo[4,5-b]pyridin-2-yl)-5'-methoxy-6-methyl-[4,4'-bipyridine]-3-carboxamide]",–,–,736,500 to 1000,–,IC50 ([1]; Biochemical assay IC50 (nM)): < 50 nM and 10.3 nM
COc1cnc(Cl)cc1-c1cc(C)ncc1C(=O)Nc1nc2ccc(C3(O)CCC(O)CC3)cc2s1 (centres unmarked) [Examples 89],–,–,171,100 to 500,–,"IC50 [1, 9]: < 50 nM and 36.7 nM"
"COc1cnc(Cl)cc1-c1cc(C)ncc1C(=O)Nc1nc2c(s1)CN(C1CCC(O)CC1)CC2 (centres unmarked) [Example 42, 2'-chloro-N-(5-(4-hydroxycyclohexyl)-4,5,6,7-tetrahydrothiazol[5,4-c]pyridin-2-yl)-5'-m ethoxy-6-methyl-[4,4'-bipyridine]-3-carboxamide]",200,200 to 500,–,–,–,"IC50 [2, 13]: > 1000 nM"
"COc1cnc(Cl)cc1-c1cc(C)ncc1C(=O)Nc1nc2ccc(N3CCOCC3)cc2s1 [Example 45, 2-chloro-5-methoxy-6-methyl-N-(6-morpholinylbenzothiazol-2-yl)-4, 4'-bipyridin-3-car boxamide]",–,–,141,100 to 500,–,"IC50 [1, 11]: 25.4 nM; IC50 [1, 12]: < 50 nM"
"COc1ccc(Cl)cc1-c1cc(C)ncc1C(=O)Nc1nc2ncc(-c3ccc(C#N)cc3)nc2s1 [Comparative Example 1, reference compound]",6.91,–,–,–,–,solubility at 2 h (Solubility assay): 2.35 µM
COc1cccc(F)c1-c1cc(C)ncc1C(=O)Nc1nc2ccc([C@H]3CC[C@@H](O)CC3)nc2s1 [Example 31],66.4,50 to 200,–,> 1000,–,–
"COc1cnc(Cl)cc1-c1cc(C)ncc1C(=O)Nc1nc2cnc(-c3c(C)cnn3CCN(C)C)cc2s1 [Example 219, 2'-chloro-N-(6-(1-(2-(dimethylamino)ethyl)-4-methyl-1H-parazol-5-yl)thiazolo[4,5-c]pyridin-2-yl)-5'-methoxy-6-methyl-[4.4'-bipyridine]-3-carboxamide trifluoroacetate]",–,–,–,63.1,–,IC50 ([1]; Biochemical assay IC50 (nM)): 3.31 nM
"COc1cnc(Cl)cc1-c1cc(C)ncc1C(=O)Nc1nc2ncc([C@H]3CC[C@@H](O)CC3)cc2s1 [Example 26, 2'-chloro-N-(6-((1s, 4s)-4-hydroxycyclohexyl)thiazolo[4,5-b]pyridin-2-yl)-5'-methoxy-6-methyl-[4,4'-bipyridine]-3-carboxamide]",–,–,158,100 to 500,–,IC50 ([1]; Biochemical assay IC50 (nM)): < 50 nM and 5.69 nM
COc1cnc(Cl)cc1-c1cc(C)ncc1C(=O)Nc1nc2ncc(C3=CCC(O)CC3)nc2s1 (centres unmarked) [Example 12],2.41,< 50,–,–,15.3,IC50 (cells; [14]): < 100 nM
COc1cnc(Cl)cc1-c1cnccc1C(=O)Nc1nc2ccc([C@H]3CC[C@@H](O)CC3)nc2s1 [Example 33],24.9,< 50,171,100 to 500,–,–

# Further lines, with some results ahead:
"IC50 [1, 5] [nM]","IC50 [1, 10] [nM]",SMILES,IC50 [2] [nM],IC50 (cells; [4]) [nM],IC50 (cells; [6]) [nM],other results
3.31,–,COc1cnc(Cl)cc1-c1cc(C)ncc1C(=O)Nc1nc2cnc(-c3c(C)nnn3C)c(F)c2s1 [Example 216],–,–,< 1.52,"half-life at 1 µM (in vitro): 28.9 h; solubility at 2 h (Solubility assay): 61.8 µM; MRT [3, 7]: 3.38 h; bioavailability [3, 7]: 178%; half-life [3, 7]: 2.2 h; Time to peak ([3]; mice, oral, administration dose 30 mg/kg): 0.75 h; Area under curve (0-t; hr * ng/mL) [3, 8]: 385.297 µg·h/mL; Peak concentration [3, 8]: 89917 ng/mL"
1240,> 500,"COc1cnc(Cl)cc1-c1cc(C)ncc1C(=O)Nc1nc2c(s1)CNCC2 [Example 41, 2'-chloro-5'-methoxy-6-methyl-N-(4,5,6,7-tetrahydrothiazol[5,4-c]pyridin-2-yl)-[4,4'-bipyridine]-3-carboxamide]",–,–,–,"IC50 [2, 13]: > 1000 nM"
4.02,–,COc1cnc(Cl)cc1-c1cc(C)ncc1C(=O)Nc1nc2ncc(N3CCC(O)C(C)(C)C3)cc2s1 (centres unmarked) [Example 118],–,–,23,–
7.13,–,COc1cnc(Cl)cc1-c1cc(C)ncc1C(=O)Nc1nc2c(CO)cc(-c3c(C)cnn3C)cc2s1 [Example 170],–,–,825,–
2.62,< 50,COc1cnc(Cl)cc1-c1cc(C)ncc1C(=O)Nc1nc2cnc(N3CCC(O)CC3)nc2s1 [Example 52],–,–,20.7,IC50 (cells; [14]): < 100 nM
2.95,< 50,COc1cnc(Cl)cc1-c1cc(C)ncc1C(=O)Nc1nc2ncc(N3CC[C@H](O)[C@H](F)C3)cc2s1 [Example 100],–,–,207,IC50 (cells; [14]): 100 to 500 nM
6.31,–,COc1cnc(Cl)cc1-c1cc(C)ncc1C(=O)Nc1nc2cnc(-c3c(C)nn4ccccc34)cc2s1 [Example 158],–,–,4.64,–
15.2,–,COc1cnc(Cl)cc1-c1cc(C)ncc1C(=O)Nc1nc2ncc(C3=CCC4(CC3)CN(C(C)=O)C4)cc2s1 [Example 184],–,–,482,–
4.28,< 50,COc1cnc(Cl)cc1-c1cc(C)ncc1C(=O)Nc1nc2ncc(NC3CCN(S(C)(=O)=O)CC3)cc2s1 [Example 69],–,–,92.6,IC50 (cells; [14]): < 100 nM
2.51,–,COc1cnc(Cl)cc1-c1cc(C)ncc1C(=O)Nc1nc2cnc(-c3c(C)cnn3CCO)cc2s1 [Example 220],–,–,22.2,–
5.14,< 50,COc1cnc(Cl)cc1-c1cc(C)ncc1C(=O)Nc1nc2ncc(-c3ccc(=O)[nH]c3)cc2s1 [Example 76],–,–,–,IC50 (cells; [14]): > 1000 nM
15.2,< 50,COc1cnc(Cl)cc1-c1cc(C)ncc1C(=O)Nc1nc2ccc(-c3ccn(C)n3)nc2s1 [Example 24],–,–,192,IC50 (cells; [14]): 100 to 500 nM
20.7,–,"COc1cnc(Cl)cc1-c1cc(C)ncc1C(=O)Nc1nc2cc(F)c(-c3c(C)nnn3C)nc2s1 [Example 227, 2'-chloro-N-(5-(1,4-dimethyl-1H-1,2,3-triazol-5-yl)-6-fluorothiazolo[5,4-b]pyridin-2-yl) -5'-methoxy-6-methyl-[4,4'-bipyridine]-3-carboxamide]",–,–,112,–
2.96,< 50,"COc1cnc(Cl)cc1-c1cc(C)ncc1C(=O)Nc1nc2ncc(N3CCC(CO)CC3)cc2s1 [Example 98, 2'-chloro-N-(6-(4-(hydroxymethyl)piperidin-1-yl)thiazolo[4,5-b]pyridin-2-yl)-5'-methox y-6-methyl-[4,4'-bipyridine]-3-carboxamide]",–,–,10.6,IC50 (cells; [14]): < 100 nM
25.1,–,COc1cnc(Cl)cc1-c1cc(C)ncc1C(=O)Nc1nc2ccc(N3CCn4cncc4C3)nc2s1 [Example 137],–,–,171,–
163,–,COc1cnc(Cl)cc1-c1c(C(=O)Nc2nc3ccc(N4CCC(O)CC4)nc3s2)cnc(C)c1F [Example 124],–,–,584,–
10.5,< 50,COc1cnc(Cl)cc1-c1cc(C)ncc1C(=O)Nc1nc2ncc(N3CC4CC(O)CC4C3)cc2s1 (centres unmarked) [Example 61],–,–,141,IC50 (cells; [14]): 100 to 500 nM
